Tests used:
TAK1-TAB1 fusion protein = target: T1, TAK1-TAB1 fusion protein (Homo sapiens, UniProt O43318); assay: In vitro TAK1 kinase assay (33P-ATP, casein substrate); type: biochemical; conditions: semi-quantitative score, at least two independent experiments
T1 construct: purchased Upstate 14-600
T1 sequence (O43318 with tags, fused parts or gaps limits assumed): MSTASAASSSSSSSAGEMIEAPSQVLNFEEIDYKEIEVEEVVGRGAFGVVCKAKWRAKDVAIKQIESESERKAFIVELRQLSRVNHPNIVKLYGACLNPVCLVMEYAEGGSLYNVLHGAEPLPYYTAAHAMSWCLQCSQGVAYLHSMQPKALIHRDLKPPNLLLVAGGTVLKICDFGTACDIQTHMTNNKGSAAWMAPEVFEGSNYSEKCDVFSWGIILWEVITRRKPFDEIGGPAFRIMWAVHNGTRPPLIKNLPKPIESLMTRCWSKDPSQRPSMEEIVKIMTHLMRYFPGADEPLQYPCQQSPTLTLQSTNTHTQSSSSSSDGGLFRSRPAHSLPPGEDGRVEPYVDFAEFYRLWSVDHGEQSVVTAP
Outline: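 Radiometric assay with active TAK1-TAB1 fusion protein (0.5 mU), 0.1 mg/mL casein, ATP at 5 µM plus [33P]-γ-ATP, in 10 mM MOPS pH 7.0, 1 mM EDTA. Reactions ran 90 min at 30 °C, were stopped with phosphoric acid and filter-counted; percent inhibition from ≥2 experiments gave semi-quantitative potency scores.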

[1] = tested on: MMP1 expression from activated SFs (RASF); assay: MMP assay: MMP1 expression (ELISA) by TNF-α-triggered RASFs; type: cell-based; conditions: RASF triggered with TNFα, MMP1 ELISA after 48 hrs, semi-quantitative score
Experimental: A 384-well format ELISA for measurement of MMP1 is developed. Various primary antibodies are tested, as well as various ELISA protocols. The following protocol is developed and validated to measure MMP1 levels in SF supernatant in 384 well plates: white Lumitrac 600 384 well plates (Greiner) are coated with 2 μg/mL anti-MMP1 antibody MAB1346 (Chemicon). The antibody is diluted in buffer 40 (1.21 g Tris base (Sigma), 0.58 g NaCl (Calbiochem) and 5 mL 10% NaN3 (Sigma) in 1 L milliQ water and adjusted to pH 8.5). After overnight incubation at 4° C., plates are washed with PBS (80 g NaCl, 2 g KCl (Sigma), 11.5 g Na2HPO4.7H2O and 2 g KH2PO4 in 10 L milliQ; pH 7.4) and blocked with 100 μL/well Casein buffer (2% Casein (VWR International) in PBS). Next day, casein buffer is removed from ELISA plates and replaced by 50 μL/well EC buffer (4 g casein, 2.13 g Na2HPO4 (Sigma), 2 g bovine albumin (Sigma), 0.69 g NaH2PO4.H2O (Sigma), 0.5 g CHAPS (Roche), 23.3 g NaCl, 4 mL 0.5 M EDTA pH 8 (Invitrogen), 5 mL 10% NaN3 in 1 L milliQ and adjusted to pH 7.0). 0.25 mM DTT (Sigma) is added to the thawed sample plates. After removal of the EC buffer, 20 μL of sample is transferred to the ELISA plates. After overnight incubation at 4° C. plates are washed twice with PBS and once with PBST (PBS with 0.05% Tween-20 (Sigma)) and incubated with 35 μL/well biotinylated anti-MMP1 antibody solution (R&D). This secondary antibody is diluted in buffer C (0.82 g NaH2PO4.H2O, 4.82 g Na2HPO4, 46.6 g NaCl, 20 g bovine albumin and 4 ml, 0.5M EDTA pH 8 in 2 L milliQ and adjusted to pH 7.0) at a concentration of 5 μg/mL. After 2 h of incubation at RT, plates are washed as described above and incubated with 50 μL/well streptavidin-HRP conjugate (Biosource). Streptavidin-HRP conjugate is diluted in buffer C at a concentration of 0.25 μg/mL. After 45 min, plates are washed as described above and incubated for 5 min with 50 μL/well BM Chem ELISA Substrate (Roche). Readout is performed on the Luminoscan Ascent Luminometer (Labsystems) with an integration time of 200 msec or with an Envision reader (Perkin Elmer).
SFs were acquired at passage 1 from a commercial supplier (Cell applications, Inc.). SFs are cultured in DMEM supplemented with 10% heat-inactivated FBS, 1× penicillin/streptomycin (Invitrogen) at 37° C., 10% CO2 until passage 6. Aliquots of the cells are frozen and cryopreserved in liquid nitrogen. Starting from a cryopreserved aliquot, cells are further expanded by sub-culturing cells at 1/3 ratio every week. Cells between passage 10 and 12 are routinely used in compound testing according to the following protocol.
Starting from the compound master stocks (all at 10 mM concentration in 100% DMSO) a 3-fold serial dilution is made in 96-well plates in 100% DMSO. Then, plates are further diluted 45-fold in M199 medium supplemented with 1% heat-inactivated FBS to obtain a intermediate work stock.
At day 1, RASFs are seeded in 96 well plates (flat bottom, tissue culture treated, Greiner) at a density of 3000 cells/well in complete synovial growth medium (Cell Applications). Day 5, the medium is completely removed from the cells, and replaced by 81 μL of M199 medium supplemented with 1% heat-inactivated FBS followed by addition of 10 μL compound out of the intermediate work stock. After an incubation period of 90 minutes, which allows the compounds to equilibrate and enter the cells, cells are stimulated with either TNF-α or ‘complex trigger’. TNF-α trigger is added in a volume of […] to obtain final concentration of 10 ng/mL. For that, TNF-α stock (PeproTech) at 10 μg/mL was diluted to 100 ng/mL TNF-α in M199 medium supplemented with 1% FBS. ‘Complex trigger’ mix is added in a volume of 20 μL to obtain a final concentration of 12.5%. For that, ‘complex trigger’ mix, is diluted to 80% with M199 medium supplemented with 1% FBS. […]

IC50 (TAK1-TAB1 fusion protein) [nM]	EC50 [1] [nM]	Compound
> 3000	> 3000	CC(=O)Nc1ccc(-c2ccc(Nc3ccc(N4CCN(C(C)C)CC4)cc3)c3nccn23)cc1 [Compound 70]
101 to 1000	> 3000	CC(C)CCN1CCN(c2ccc(Nc3ccc(-c4ccc(C(N)=O)cc4)n4ccnc34)cc2)CC1 [Compound 79]
101 to 1000	101 to 1000	CC(C)N1CCN(c2ccc(Nc3ccc(-c4cn[nH]c4)n4ccnc34)cc2)CC1 [Compound 6, [4-(4-Isopropyl-piperazin-1-yl)-phenyl]-[5-(1H-pyrazol-4-yl)-imidazo[1,2-a]pyridin-8-yl]-amine]
101 to 1000	> 3000	CCC(CC)N1CCN(c2ccc(Nc3ccc(-c4ccc(C(N)=O)cc4)n4ccnc34)cc2)CC1 [Compound 80]
101 to 1000	1000 to 3000	CC(C)CCN1CCN(c2ccc(Nc3ccc(-c4cc[nH]c(=O)c4)n4ccnc34)cc2)CC1 [Compound 86]
101 to 1000	> 3000	CC(C)N1CCN(c2ccc(Nc3ccc(-c4cccc5[nH]ccc45)n4ccnc34)cc2)CC1 [Compound 75]
1000 to 3000	> 3000	NC(=O)c1ccc(-c2ccc(Nc3ccc(N4CCN(C5CC5)CC4)cc3)c3nccn23)cc1 [Compound 83]
101 to 1000	101 to 1000	CCCN1CCN(c2ccc(Nc3ccc(-c4ccc(C(N)=O)cc4)n4ccnc34)cc2)CC1 [Compound 76]

More lines, now with the values behind:

Compound	IC50 (TAK1-TAB1 fusion protein) [nM]	EC50 [1] [nM]
CS(=O)(=O)c1ccc(Nc2ccc(-c3cn[nH]c3)n3ccnc23)cc1 [Compound 71]	101 to 1000	1000 to 3000
CN(C)S(=O)(=O)c1ccc(Nc2ccc(-c3ccc4c(c3)CNC4=O)n3ccnc23)cc1 [Compound 20, N,N-dimethyl-4-(5-(1-oxoisoindolin-5-yl)imidazo[1,2-a]pyridin-8-ylamino)benzene sulfonamide]	101 to 1000	101 to 1000
CCN(C)CCN(CC)C(=O)c1ccc(Nc2ccc(-c3ccc4c(c3)CNC4=O)n3ccnc23)cc1 [Compound 47, N-ethyl-N-(2-(ethyl(methyl)amino)ethyl)-4-(5-(1-oxoisoindolin-5-yl)imidazo[1,2-a]pyridin-8-ylamino)benzamide]	< 100	> 3000
CC(C)N1CCN(c2ccc(Nc3ccc(-c4ccc5c(c4)CNC5=O)n4ccnc34)cc2C(F)(F)F)CC1 [Compound 27, 5-(8-(4-(4-isopropylpiperazin-1-yl)-3-(trifluoromethyl)phenylamino)imi-dazo[1,2-a]pyridin-5-yl)isoindolin-1-one]	101 to 1000	> 3000
CC1CN(c2ccc(Nc3ccc(-c4cc[nH]c(=O)c4)n4ccnc34)cc2)CC(C)N1 (centres unmarked) [Compound 124, 4-{8-[4-(3,5-Dimethyl-piperazin-1-yl)-phenylamino]-imidazo[1,2-a]pyridin-5-yl}-1H-pyridin-2-one]	101 to 1000	1000 to 3000
CCC(C)N1CCN(C(=O)c2ccc(Nc3ccc(-c4ccc5c(c4)CNC5=O)n4ccnc34)cc2)CC1 (centres unmarked) [Compound 52, 5-(8-(4-(4-sec-butylpiperazine-1-carbonyl)phenylamino)imidazo [1,2-a]pyridin-5-yl)isoindolin-1-one]	101 to 1000	> 3000
O=C(Nc1ccccc1)c1ccc(Nc2ccc(-c3ccc4c(c3)CNC4=O)n3ccnc23)cc1 [Compound 17, 4-(5-(1-oxoisoindolin-5-yl)imidazo[1,2-a]pyridin-8-ylamino)-N-phenylbenzamide]	1000 to 3000	> 3000
O=C1NCc2cc(-c3ccc(Nc4ccc(C(=O)N5CCC(N6CCCCC6)CC5)cc4)c4nccn34)ccc21 [Compound 46, 5-(8-(4-(1,4′-bipiperidine-1′-carbonyl)phenylamino)imidazo[1,2-a]pyridin-5-yl)isoindolin-1-one]	< 100	> 3000
CC(C)N1CCN(c2ccc(Nc3ccc(-c4ccc5c(c4)CNC5=O)n4ccnc34)cc2F)CC1 [Compound 26, 5-(8-(3-fluoro-4-(4-isopropyl-piperazin-1-yl)phenylamino)imidazo[1,2-a]pyridin-5-yl)isoindolin-1-one]	< 100	> 3000
CC(=O)N(C)C1CCN(C(=O)c2ccc(Nc3ccc(-c4ccc5c(c4)CNC5=O)n4ccnc34)cc2)C1 (centres unmarked) [Compound 42, N-methyl-N-(1-(4-(5-(1-oxoisoindolin-5-yl)imidazo[1,2-a]pyridin-8-ylamino)benzoyl)pyrrolidin-3-yl)acetamide]	101 to 1000	> 3000
CN(C)c1ccc(CNC(=O)c2ccc(Nc3ccc(-c4ccc5c(c4)CNC5=O)n4ccnc34)cc2)cc1 [Compound 33]	101 to 1000	101 to 1000
CCN1CCC[C@H]1CNC(=O)c1ccc(Nc2ccc(-c3ccc4c(c3)CNC4=O)n3ccnc23)cc1 [Compound 49, (S)-N-((1-ethylpyrrolidin-2-yl)methyl)-4-(5-(1-oxoisoindolin-5-yl)imidazo[1,2-a]pyridin-8-ylamino)benzamide]	< 100	> 3000
CCN1CCN(C(=O)c2ccc(Nc3ccc(-c4ccc5c(c4)CNC5=O)n4ccnc34)cc2)CC1 [Compound 53, 5-(8-(4-(4-ethylpiperazine-1-carbonyl)phenylamino)imidazo [1,2-a]pyridin-5-yl)isoindolin-1-one]	< 100	> 3000
NC(=O)c1ccc(-c2ccc(Nc3ccc(N4CCOCC4)c(F)c3)c3nccn23)cc1Cl [Compound 73]	> 3000	101 to 1000
O=C(NCCCN1CCCC1)c1ccc(Nc2ccc(-c3ccc4c(c3)CNC4=O)n3ccnc23)cc1 [Compound 51, 4-(5-(1-oxoisoindolin-5-yl)imidazo[1,2-a]pyridin-8-ylamino)-N-(3-(pyrrolidin-1-yl)propyl)benzamide]	101 to 1000	> 3000
O=C1NCc2cc(-c3ccc(Nc4ccc(S(=O)(=O)N5CCOCC5)cc4)c4nccn34)ccc21 [Compound 16, 5-(8-(4-(morpholinosulfonyl)phenylamino)imidazo[1,2-a]pyridin-5-yl)isoindolin-1-one]	101 to 1000	> 3000
O=C1NCc2cc(-c3ccc(Nc4ccc(C(=O)N5CCOCC5)cc4)c4nccn34)ccc21 [Compound 15, 5-(8-(4-(morpholine-4-carbonyl)phenyl-amino)imidazo[1,2-a]pyridin-5-yl)isoindolin-1-one]	101 to 1000	> 3000

Reference: patent US20120010206A1, “IMIDAZOLOPYRIDINE COMPOUNDS USEFUL FOR THE TREATMENT OF DEGENERATIVE AND INFLAMMATORY DISEASES” (priority 2006, published 2012)
